Measured values taken from PMC12606464, “Investigating NFE2L1 activators for targeted protein aggregate clearance: a follow-up study” (RSC Medicinal Chemistry, 2025).

System: C. elegans wild-type (N2)
Experiment: Acute juglone/paraquat-induced oxidative stress resistance in C. elegans N2
Format: in vivo, Caenorhabditis elegans
Conditions: for # deaths/events: over 12 hours; for Median survival: Fig. 5C
Protocol: Fig. 5 RUN-89 prevents protein aggregation and increases stress resistance in C. elegans. (A) The AM140 strain expressing aggregation-prone Q35-YFP was treated with 50 μM RUN-89 or the vehicle for 6 days, followed by microscopy analysis. Overall, 959 Q35-YFP foci (DMSO = 517; RUN-89 = 442) were identified in 102 animals (DMSO: N = 3 populations, n = 55 animals in total; RUN-89: N = 3 populations, n = 47 animals in total). The two dashed horizontal lines indicate the interquartile range, and the thick horizontal line represents the median. The Kolmogorov–Smirnov test verified a significant reduction of surface and integrated optical density of foci after RUN-89 treatment. (B) Representative images of two animals per treatment condition. Images were taken on the same day, using identical settings for the instruments used. (C) Protective effect of RUN-89 against juglone and paraquat-induced stress. […] The mortality was monitored hourly over a 12 hour period. […] For juglone treatment, 629 animals were examined (DMSO: N = 2 populations of 167 and 152 animals, n = 319 animals in total; RUN-89: N = 2 populations of 141 and 169 animals, n = 310 animals in total). Results were analyzed using the Kaplan–Meier method and are presented as survival percentages with standard errors. The survival curves were compared using the Gehan–Breslow–Wilcoxon test (juglone) and log-rank test (paraquat). (A and C) Detailed results of the analysis are shown in SI Tables S10 and S11. *p < 0.05, ****p < 0.001.
Next, we examined whether the compound RUN-89 protects animals from oxidative damage/death induced by increased reactive oxygen species (ROS) levels. In worms, the herbicide paraquat and the naturally occurring quinone compound juglone are well-known for inducing oxidative stress.[84] In this experiment, the wild-type (N2) strain was used, and RUN-89 was administered at a concentration of 50 μM for 24 hours. Following this pretreatment, approximately 130 animals were transferred to plates containing either 180 μM juglone or 200 μM paraquat. Worm mortality was monitored over a 12-hour period. […]
2.13 C. elegans strains and maintenance
The animals were kept at 20 °C according to standard cultivation conditions (Biron & […]
(mgIs72 [rpt-3p::GFP + dpy-5(+)] II) of Caenorhabditis elegans strains and E. coli strain OP50 were obtained from the Caenorhabditis Genetic Centre (CGC, University of Minnesota , http://cbs.umn.edu/cgc/home). […]
Kolmogorov-Smirnov test performed in GraphPad Prism (v 10.6.1).
2.15 Acute juglone/paraquat-induced oxidative stress resistance in C.
Eggs of the wild-type strain (N2) were placed in liquid S-basal medium supplemented with E. coli OP50 as a food source. Upon reaching the young adult stage, they were exposed to either 50 µM RUN 89 or an equivalent volume of solvent (control group) and incubated at 20 °C for 24 hours. Approximately 130 animals were placed on plates containing either 180 µM juglone or 200 µM paraquat to induce severe oxidative stress .(5, 6) The number of dead animals was recorded each hour throughout the 12-hour experiment. The data were then analyzed using Kaplan-Meier survival analysis, and the results were examined through this method. Su rvival curves were compared via the Gehan-Breslow-Wilcoxon test or the log-rank (Mantel-Cox) test in GraphPad Prism software ( v 10.6.1).

[1] = juglon stress, B = juglon + DMSO, C = juglon + RUN-89
[2] = paraquat stress, B = paraquat + DMSO, C = paraquat + RUN-89

## COc1ccc(/C=C2\CC(NC(=O)C3CCCC3)C/C(=C\c3ccc(OC)c(OC)c3)C2=O)cc1OC (stereo not drawn) [RUN-89]
N2, 50 μM for 24 h, then 180 μM juglone, mortality over 12 h
  Protection against juglone-induced lethal oxidative stress: significant protective effect
N2, 50 μM for 24 h, then 200 μM paraquat, mortality over 12 h
  Protection against paraquat-induced lethal oxidative stress: significant protective effect
Juglon stress
  Ratio of median survival (reciprocal), juglon + RUN-89 / juglon + DMSO: 1.25
  Ratio of median survival, juglon + DMSO / juglon + RUN-89: 0.8
Juglon stress, 306 subjects at 0 h
  # deaths/events: 305
Juglon stress, 1 hour, 306 at 0 h
  # at risk: 306
Juglon stress, 2 hours, 306 at 0 h
  # at risk: 289
Juglon stress, 3 hours, 306 at 0 h
  # at risk: 235
Juglon stress, 4 hours, 306 at 0 h
  # at risk: 190
Juglon stress, 5 hours, 306 at 0 h
  # at risk: 164
Juglon stress, 6 hours, 306 at 0 h
  # at risk: 124
Juglon stress, 7 hours, 306 at 0 h
  # at risk: 105
Juglon stress, 8 hours, 306 at 0 h
  # at risk: 82
Juglon stress, 9 hours, 306 at 0 h
  # at risk: 37
Juglon stress, 10 hours, 306 at 0 h
  # at risk: 13
Juglon stress, 11 hours, 306 at 0 h
  # at risk: 7
Juglon stress, 12 hours, 306 at 0 h
  # at risk: 1
Juglon stress, juglon + DMSO median 4
  Median survival: 5 h
[1]
  Hazard Ratio (Mantel-Haenszel) B/C: 1.206
  Hazard Ratio (Mantel-Haenszel) C/B: 0.8295
  Hazard Ratio (logrank) B/C: 1.141
  Hazard Ratio (logrank) C/B: 0.8761
Paraquat stress
  Ratio of median survival (reciprocal), paraquat + RUN-89 / paraquat + DMSO: 1.4
  Ratio of median survival, paraquat + DMSO / paraquat + RUN-89: 0.7143
Paraquat stress, 274 subjects at 0 h
  # deaths/events: 273
Paraquat stress, 1 hour, 274 at 0 h
  # at risk: 274
Paraquat stress, 2 hours, 274 at 0 h
  # at risk: 263
Paraquat stress, 3 hours, 274 at 0 h
  # at risk: 241
Paraquat stress, 4 hours, 274 at 0 h
  # at risk: 216
Paraquat stress, 5 hours, 274 at 0 h
  # at risk: 209
Paraquat stress, 6 hours, 274 at 0 h
  # at risk: 167
Paraquat stress, 7 hours, 274 at 0 h
  # at risk: 148
Paraquat stress, 8 hours, 274 at 0 h
  # at risk: 130
Paraquat stress, 9 hours, 274 at 0 h
  # at risk: 109
Paraquat stress, 10 hours, 274 at 0 h
  # at risk: 84
Paraquat stress, 11 hours, 274 at 0 h
  # at risk: 44
Paraquat stress, 12 hours, 274 at 0 h
  # at risk: 11
Paraquat stress, paraquat + DMSO median 5
  Median survival: 7 h
[2]
  Hazard Ratio (Mantel-Haenszel) B/C: 1.524
  Hazard Ratio (Mantel-Haenszel) C/B: 0.6563
  Hazard Ratio (logrank) B/C: 1.357
  Hazard Ratio (logrank) C/B: 0.7368
